Values quoted from earlier work in patent US9302241B2, “Method of preparing lipid nanoparticles” (UNIVERSITE D'ANGERS, priority 2008, dated 2016).

Settings: concentration of Fondaparinux in its brand form Arixtra

- solubility in water: greater than 12.5 mg/ml
Substance: Fondaparinux
